Reference: ChEMBL document CHEMBL1201862, “PubChem BioAssay data set” (2004)
The source made the active and inactive calls.

How the values were obtained:
[1] = NIH3T3 cell viability loss – ATP luminescence, mouse fibroblasts, counter-screen, dose response (AID 2010); type: functional, cell-based;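 further: cells exposed to compound for about 90 hours before reading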
[2] = target: G-protein coupled receptor 35 (Homo sapiens, UniProt Q9HC97); assay: inhibition of zaprinast-stimulated GPR35 beta-arrestin translocation – imaging, U2OS, beta-arrestin-GFP, zaprinast agonist, primary screen (AID 2058); type: functional;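 further: antagonist potency meaning inhibition of agonist-induced arrestin redistribution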
[3] = microbe, parasite or virus in culture; type: functional; conditions: Mycobacterium tuberculosis
[4] = Trypanosoma cruzi growth suppression in host cells – NIH3T3 host cells, beta-gal luminescence, confirmation (AID 2044); type: functional, cell-based;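 further: intracellular parasites grown in NIH/3T3 mouse fibroblasts as host cells; luminescent beta-galactosidase reporter signal from transgenic T. cruzi replicating inside host cells; inhibitors lower the luminescence signal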
[5] = HPDE-C7 pancreatic duct cell viability loss – fluorescence, HTS (AID 430); type: functional, cell-based; conditions: Homo sapiens
[6] = target: T1, Heat shock factor protein 1 (Mus musculus, UniProt P38532); assay: enhancement of HSF1-driven luciferase signal – cell-based, NIH3T3, luminescence, dose retest, confirmation (AID 435004); type: functional;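 further: stress induced by proteasome inhibitor MG132 added 30 min after compound; luciferase reporter driven by HSF1 response element in NIH3T3 cells; actives raise luminescence as potentiators of the MG132 stress response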
T1 sequence (P38532 whole entry): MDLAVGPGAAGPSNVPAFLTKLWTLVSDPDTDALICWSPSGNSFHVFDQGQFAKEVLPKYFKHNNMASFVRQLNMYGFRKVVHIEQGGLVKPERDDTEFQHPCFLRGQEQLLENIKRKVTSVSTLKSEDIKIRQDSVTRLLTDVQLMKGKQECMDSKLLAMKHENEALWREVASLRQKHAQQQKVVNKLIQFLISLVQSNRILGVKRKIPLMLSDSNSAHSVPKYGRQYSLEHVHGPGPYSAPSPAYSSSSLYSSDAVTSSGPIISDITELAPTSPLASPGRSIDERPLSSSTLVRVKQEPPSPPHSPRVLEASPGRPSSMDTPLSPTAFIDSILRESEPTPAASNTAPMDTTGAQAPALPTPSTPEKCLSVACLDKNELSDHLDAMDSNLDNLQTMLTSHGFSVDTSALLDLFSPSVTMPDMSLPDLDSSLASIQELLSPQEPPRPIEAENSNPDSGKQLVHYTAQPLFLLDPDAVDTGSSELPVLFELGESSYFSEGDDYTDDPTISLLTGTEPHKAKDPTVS

[7] = target: Sphingosine 1-phosphate receptor 2 (Homo sapiens, UniProt O95136); assay: Dose Response Cell Based Assay for Antagonists of the S1P2 Receptor. [Related pubchem assays: 856, 736 ]; type: functional
[8] = viability loss of HPDE-C7K cells – cell-based, fluorescence, HTS, primary screen (AID 431); type: functional; conditions: Homo sapiens
[9] = target: Eukaryotic translation initiation factor 4H (Homo sapiens, UniProt Q15056); assay: eIF4H binding inhibition – biochemical, uHTS, fluorescence polarization, translation initiation inhibitor project, primary screen (AID 2012)
[10] = target: Polyadenylate-binding protein 1 (Homo sapiens, UniProt P11940); assay: blockers of PABP interaction with poly(A) – biochemical, fluorescence polarization, […] (AID 2014)
[11] = Luminescence-based cell-based high throughput dose response assay to identify activators of the DAF-12 from the parasite S. stercoralis (ssDAF-12).; type: functional
[12] = target: Cyclin-dependent kinase 5/CDK5 activator 1 (Homo sapiens, UniProt Q00535); assay: blockade of human CDK5 activity – biochemical, cherry-picked samples, set 2, dose response (AID 504545)
[13] = target: T2, Oxysterols receptor LXR-beta (Homo sapiens, UniProt P55055); assay: LXR agonists, Gal4 luciferase reporter, dose response, counter-screen for ssDAF-12 agonist project, cell-based, luminescence, HEK293, S. stercoralis campaign (AID 720737); type: functional; conditions: read-out: IC50 (the source's name)
T2 sequence (P55055 whole entry): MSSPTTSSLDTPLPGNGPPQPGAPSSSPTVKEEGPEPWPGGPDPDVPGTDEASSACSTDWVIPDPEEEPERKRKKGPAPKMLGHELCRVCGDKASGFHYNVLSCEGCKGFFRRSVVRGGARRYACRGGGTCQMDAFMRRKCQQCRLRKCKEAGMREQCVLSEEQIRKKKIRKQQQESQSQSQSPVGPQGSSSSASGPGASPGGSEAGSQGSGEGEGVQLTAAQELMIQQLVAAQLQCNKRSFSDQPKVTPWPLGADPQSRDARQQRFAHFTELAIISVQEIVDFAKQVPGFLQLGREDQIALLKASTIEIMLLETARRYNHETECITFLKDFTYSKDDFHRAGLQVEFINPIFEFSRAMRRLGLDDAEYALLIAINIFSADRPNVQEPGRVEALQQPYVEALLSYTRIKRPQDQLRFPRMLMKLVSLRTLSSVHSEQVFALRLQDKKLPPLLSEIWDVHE

[14] = target: Dual specificity tyrosine-phosphorylation-regulated kinase 1A (Rattus norvegicus, UniProt Q63470); type: biochemical, Homo sapiens
[15] = HEK-293T cell viability reduction – luminescence, B-cell screen hits, cytotoxicity control for BCR NF-kB inhibitor project, dose response (AID 489021); type: functional, cell-based;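 further: HEK-293T cells carrying an NF-kB luciferase reporter; cells exposed to compound for about 14 hours before viability readout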
[16] = target: G2/mitotic-specific cyclin-B1 (Homo sapiens, UniProt P14635); assay: Counterscreen assay for inhibitors of Wee1 degradation: dose response cell-based assay to identify inhibitors of cyclin B degradation. [Related pubchem assays: 1410, 1321 ]; type: functional
Wee1-like protein kinase = Wee1-like protein kinase (Homo sapiens, UniProt P30291); assay: Dose Response Cell-based Assay for Inhibitors of Wee1 Degradation. [Related pubchem assays: 1410, 1321 ]; type: functional
Sequence of Wee1-like protein kinase (P30291 whole entry): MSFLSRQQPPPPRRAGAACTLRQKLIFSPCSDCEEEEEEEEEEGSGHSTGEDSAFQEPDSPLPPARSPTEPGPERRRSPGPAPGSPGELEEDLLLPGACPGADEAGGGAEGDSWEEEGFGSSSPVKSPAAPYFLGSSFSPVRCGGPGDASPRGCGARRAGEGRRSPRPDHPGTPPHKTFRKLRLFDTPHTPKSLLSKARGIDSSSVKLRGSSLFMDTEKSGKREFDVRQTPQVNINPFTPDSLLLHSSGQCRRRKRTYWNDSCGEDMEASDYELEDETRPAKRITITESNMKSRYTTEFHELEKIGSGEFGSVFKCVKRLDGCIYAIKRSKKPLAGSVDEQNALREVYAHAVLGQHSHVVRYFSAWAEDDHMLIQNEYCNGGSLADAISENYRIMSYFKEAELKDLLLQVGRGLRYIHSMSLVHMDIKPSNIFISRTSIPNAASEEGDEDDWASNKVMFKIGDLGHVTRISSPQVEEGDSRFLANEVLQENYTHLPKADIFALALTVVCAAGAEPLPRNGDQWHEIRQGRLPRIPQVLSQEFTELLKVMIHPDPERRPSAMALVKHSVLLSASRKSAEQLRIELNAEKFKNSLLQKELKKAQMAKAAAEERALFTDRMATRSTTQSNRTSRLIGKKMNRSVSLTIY

Sequence of Cyclin-dependent kinase 5/CDK5 activator 1 (Q00535 whole entry, the tested form may be a part): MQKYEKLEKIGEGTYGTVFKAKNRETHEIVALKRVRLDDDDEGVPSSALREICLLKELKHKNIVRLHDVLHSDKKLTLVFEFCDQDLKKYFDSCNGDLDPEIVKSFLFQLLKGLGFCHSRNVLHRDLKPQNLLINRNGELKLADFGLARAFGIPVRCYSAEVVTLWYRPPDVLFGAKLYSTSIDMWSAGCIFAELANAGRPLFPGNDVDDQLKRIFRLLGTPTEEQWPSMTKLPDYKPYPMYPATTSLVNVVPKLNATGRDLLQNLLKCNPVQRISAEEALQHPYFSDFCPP
Sequence of Cyclin-dependent kinase 5/CDK5 activator 1 (Q15078 whole entry, further chain, the tested form may be a part): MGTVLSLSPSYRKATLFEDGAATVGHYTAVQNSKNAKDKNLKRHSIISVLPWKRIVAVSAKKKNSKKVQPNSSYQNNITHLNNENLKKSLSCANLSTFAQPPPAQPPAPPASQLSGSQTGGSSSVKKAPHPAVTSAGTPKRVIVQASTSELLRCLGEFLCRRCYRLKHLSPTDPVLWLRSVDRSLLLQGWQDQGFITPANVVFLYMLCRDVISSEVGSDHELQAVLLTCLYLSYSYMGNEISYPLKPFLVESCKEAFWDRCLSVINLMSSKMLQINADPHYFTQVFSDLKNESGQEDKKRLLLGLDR
Sequence of Polyadenylate-binding protein 1 (P11940 whole entry): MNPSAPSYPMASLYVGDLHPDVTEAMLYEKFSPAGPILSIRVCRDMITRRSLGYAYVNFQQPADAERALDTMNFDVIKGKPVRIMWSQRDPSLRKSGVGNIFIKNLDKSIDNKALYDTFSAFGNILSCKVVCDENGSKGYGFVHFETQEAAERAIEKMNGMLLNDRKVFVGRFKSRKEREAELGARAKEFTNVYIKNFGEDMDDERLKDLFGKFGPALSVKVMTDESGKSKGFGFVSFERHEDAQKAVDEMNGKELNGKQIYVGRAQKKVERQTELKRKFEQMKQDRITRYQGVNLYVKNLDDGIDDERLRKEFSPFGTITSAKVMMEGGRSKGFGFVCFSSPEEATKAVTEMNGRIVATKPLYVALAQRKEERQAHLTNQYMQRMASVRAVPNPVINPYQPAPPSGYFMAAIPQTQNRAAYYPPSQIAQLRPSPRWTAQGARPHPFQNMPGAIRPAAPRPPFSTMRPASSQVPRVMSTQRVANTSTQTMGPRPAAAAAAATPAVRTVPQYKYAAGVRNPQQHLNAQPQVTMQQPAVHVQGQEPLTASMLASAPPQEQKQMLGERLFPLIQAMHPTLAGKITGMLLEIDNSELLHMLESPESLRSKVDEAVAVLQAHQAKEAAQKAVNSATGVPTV
Sequence of G-protein coupled receptor 35 (Q9HC97 whole entry): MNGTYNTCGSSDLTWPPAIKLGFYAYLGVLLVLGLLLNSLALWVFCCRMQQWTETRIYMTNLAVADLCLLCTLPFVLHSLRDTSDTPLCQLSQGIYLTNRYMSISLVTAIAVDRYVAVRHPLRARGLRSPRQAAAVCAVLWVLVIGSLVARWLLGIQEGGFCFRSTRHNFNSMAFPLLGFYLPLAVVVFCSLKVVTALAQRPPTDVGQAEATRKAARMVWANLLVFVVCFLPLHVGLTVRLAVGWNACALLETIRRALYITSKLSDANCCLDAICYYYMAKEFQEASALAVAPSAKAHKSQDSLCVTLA
Sequence of Sphingosine 1-phosphate receptor 2 (O95136 whole entry): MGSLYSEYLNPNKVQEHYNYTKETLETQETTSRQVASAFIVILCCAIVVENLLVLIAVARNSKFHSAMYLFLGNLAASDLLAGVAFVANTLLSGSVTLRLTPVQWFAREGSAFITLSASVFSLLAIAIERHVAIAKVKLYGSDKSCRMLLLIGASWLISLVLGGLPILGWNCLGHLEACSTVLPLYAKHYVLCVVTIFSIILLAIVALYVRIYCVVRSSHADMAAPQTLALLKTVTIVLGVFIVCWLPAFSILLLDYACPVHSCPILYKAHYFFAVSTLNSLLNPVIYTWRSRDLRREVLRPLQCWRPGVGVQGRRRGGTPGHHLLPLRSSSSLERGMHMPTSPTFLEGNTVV
Sequence of G2/mitotic-specific cyclin-B1 (P14635 whole entry): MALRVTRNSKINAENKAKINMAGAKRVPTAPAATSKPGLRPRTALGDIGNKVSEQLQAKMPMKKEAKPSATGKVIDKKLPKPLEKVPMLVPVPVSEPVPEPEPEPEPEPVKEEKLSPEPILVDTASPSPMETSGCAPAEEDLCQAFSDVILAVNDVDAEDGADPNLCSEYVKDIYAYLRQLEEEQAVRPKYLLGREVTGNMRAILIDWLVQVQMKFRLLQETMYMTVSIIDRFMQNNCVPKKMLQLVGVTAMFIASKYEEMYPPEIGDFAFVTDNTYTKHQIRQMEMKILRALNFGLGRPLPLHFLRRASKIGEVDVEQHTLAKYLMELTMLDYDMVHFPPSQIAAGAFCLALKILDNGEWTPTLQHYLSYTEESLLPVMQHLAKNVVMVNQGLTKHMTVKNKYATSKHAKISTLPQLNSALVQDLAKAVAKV

CCN(CC)c1ccc2c(Cl)c(Br)c(=O)oc2c1
EC50 [1]: 4.88 µM (active)
IC50 [2]: < 0.5 µM (active)
CC50 [3]: > 40 µM (active)
EC50 [4]: 2.96 µM (active)
EC50 [5]: 3.1 µM (active)
EC50 [6]: 2.75 µM (inconclusive)
IC50 [7]: 2.53 µM (active)
EC50 [8]: 2.08 µM (active)

c1cc[n+](CCC[n+]2ccccc2)cc1
IC50 [9]: 96.5 µM (active)
IC50 [10]: 3.68 µM (active)

O=C(O)c1ccc(/C=N/Nc2ccc(C(F)(F)F)cn2)cc1
IC50 [11]: > 67.6 µM (inactive)
AC50 [12]: 5.54 µM (active)
EC50 [13]: > 67.6 µM (inactive)
AC50 [14]: 7.95 µM (active)

Nc1ccc(-c2cnc(N)c(C(=O)c3cccnc3)n2)cn1
AC50 [12]: 36.7 µM (active)

OCCC/N=C/c1c(-c2ccccc2)nn(-c2nc3ccccc3s2)c1O
IC50 [15]: > 80 µM (inactive)

CCOC(=O)N1CCN(C(=O)c2cc(-c3ccc(OCC)cc3)nc3ccccc23)CC1
EC50 [16]: > 49.7 µM (not active)
EC50 (Wee1-like protein kinase): > 49.7 µM (not active)
EC50 [6]: 14.5 µM (active)
